Test results taken from patent publication US11236087B2, “Highly active pyrazolo-piperidine substituted indole-2-carboxamides active against the hepatitis B virus (HBV)” (AiCuris GmbH & Co. KG, priority 2017, dated 2022).

What was measured:
HBV = test: Determination of HBV DNA from the supernatants of HepAD38 cells (anti-HBV activity); format: cell-based, hepatitis B virus; details: Hepatitis B virus, 144 h; HBV DNA in HepAD38 supernatant, day 6, qPCR; read-out: Cell Activity (EC50)
Procedure: Determination of HBV DNA from the Supernatants of HepAD38 Cells
The anti-HBV activity was analysed in the stable transfected cell line HepAD38, which has been described to secrete high levels of HBV virion particles (Ladner et al., 1997). In brief, HepAD38 cells were cultured at 37° C. at 5% CO2 and 95% humidity in 200 μl maintenance medium, which was Dulbecco's modified Eagle's medium/Nutrient Mixture F-12 (Gibco, Karlsruhe), 10% fetal bovine serum (PAN Biotech Aidenbach) supplemented with 50 μg/ml penicillin/streptomycin (Gibco, Karlsruhe), 2 mM L-glutamine (PAN Biotech, Aidenbach), 400 μg/ml G418 (AppliChem, Darmstadt) and 0.3 μg/ml tetracycline. Cells were subcultured once a week in a 1:5 ratio, but were usually not passaged more than ten times. For the assay 60,000 cells were seeded in maintenance medium without any tetracycline into each well of a 96-well plate and treated with serial half-log dilutions of test compound. To minimize edge effects the outer 36 wells of the plate were not used but were filled with assay medium. On each assay plate six wells for the virus control (untreated HepAD38 cells) and six wells for the cell control (HepAD38 cells treated with 0.3 μg/ml tetracycline) were allocated, respectively. In addition, one plate set with reference inhibitors like BAY 41-4109, entecavir, and lamivudine instead of screening compounds were prepared in each experiment. In general, experiments were performed thrice in triplicates. At day 6 HBV DNA from 100 μl filtrated cell culture supernatant (AcroPrep Advance 96 Filter Plate, […] Supor membran, PALL GmbH, Dreieich) was automatically purified on the MagNa Pure LC instrument using the MagNA Pure 96 DNA and Viral NA Small Volume Kit (Roche Diagnostics, Mannheim) according to the instructions of the manufacturer. EC50 values were calculated from relative copy numbers of HBV DNA In brief, 5 μl of the 100 μl eluate containing HBV DNA were subjected to PCR LC480 Probes Master Kit (Roche) together with 1 μM antisense primer […], 0.5 μM sense primer […], 0.3 μM hybprobes […]-FL and LC640-[…]-PH (TIBMoBiol, Berlin) to a final volume of 12.5 μl. The PCR was performed on the Light Cycler 480 real time system (Roche Diagnostics, Mannheim) using the following protocol: Pre-incubation for 1 min at 95° C., amplification: 40 cycles×(10 sec at 95° C., 50 sec at 60° C., 1 sec at 70° C.), cooling for 10 sec at 40° C. Viral load was quantitated against known standards using HBV plasmid DNA of pCH-9/3091 (Nassal et al., 1990, Cell 63: 1357-1363) and the LightCycler 480 SW 1.5 software (Roche Diagnostics, Mannheim) and EC50 values were calculated using non-linear regression with GraphPad Prism 6 (GraphPad Software Inc., La Jolla, USA).

[1] = Cell viability assay (AlamarBlue) in HepAD38 cells; details: human

| SMILES | EC50 (HBV) [µM] | CC50 at 6 days [1] [µM] |
| --- | --- | --- |
| CN(C(=O)c1n[nH]c2c1CN(C(=O)c1cc3c(F)cc(F)cc3[nH]1)CC2)C1(CO)CC1 [Example 238, 5-(4,6-difluoro-1H-indole-2-carbonyl)-N-[1-(hydroxymethyl)cyclopropyl]-N-methyl-1H,4H,5H,6H,7H-pyrazolo[4,3-c]pyridine-3-carboxamide] | < 1 | > 10 |
| O=C(c1cc2c(Cl)cc(F)cc2[nH]1)N1CCc2[nH]nc(C(=O)N3CCC(F)(F)C3)c2C1 [Example 229, 4-chloro-2-[3-(3,3-difluoropyrrolidine-1-carbonyl)-1H,4H,5H,6H,7H-pyrazolo[4,3-c]pyridine-5-carbonyl]-6-fluoro-1H-indole] | < 1 | > 10 |
| O=C(c1cc2c(F)cc(F)cc2[nH]1)N1CCc2n[nH]c(C3CCC3)c2C1 [Example 388, 2-{3-cyclobutyl-2H,4H,5H,6H,7H-pyrazolo[4,3-c]pyridine-5-carbonyl}-4,6-difluoro-1H-indole] | < 1 | > 10 |
| C[C@@H]1CCC[C@@H](C)N1C(=O)c1n[nH]c2c1CN(C(=O)c1cc3ccccc3[nH]1)CC2 [Example 146, 2-{3-[(2R,6R)-2,6-dimethylpiperidine-1-carbonyl]-1H,4H,5H,6H,7H-pyrazolo[4,3-c]pyridine-5-carbonyl}-1H-indole] | 1 to 25 | > 10 |
| Cn1ncc2c1CN(C(=O)c1n[nH]c3c1CN(C(=O)c1cc4ccccc4[nH]1)CC3)C2 [Example 168, 2-(3-{1-methyl-1H,4H,5H,6H-pyrrolo[3,4-c]pyrazole-5-carbonyl}-1H,4H,5H,6H,7H-pyrazolo[4,3-c]pyridine-5-carbonyl)-1H-indole] | 1 to 25 | > 10 |
| O=C(c1cc2c(Cl)c(F)ccc2[nH]1)N1CCc2n[nH]c(-c3cscn3)c2C1 [Example 13, 4-chloro-5-fluoro-2-[3-(1,3-thiazol-4-yl)-2H,4H,5H,6H,7H-pyrazolo[4,3-c]pyridine-5-carbonyl]-1H-indole] | < 1 | > 10 |
| O=C(c1cc2c(Cl)cccc2[nH]1)N1CCc2[nH]nc(C(=O)N3CCCC34CC4)c2C1 [Example 216, 2-(3-{4-azaspiro[2.4]heptane-4-carbonyl}-1H,4H,5H,6H,7H-pyrazolo[4,3-c]pyridine-5-carbonyl)-4-chloro-1H-indole] | < 1 | > 10 |
| O=C(c1cc2ccccc2[nH]1)N1CCc2n[nH]c(C(=O)N3CC(F)(F)CC34CC4)c2C1 [Example 401, 2-(3-{6,6-difluoro-4-azaspiro[2.4]heptane-4-carbonyl}-2H,4H,5H,6H,7H-pyrazolo[4,3-c]pyridine-5-carbonyl)-1H-indole] | < 1 | > 10 |
| CN(C(=O)c1n[nH]c2c1CN(C(=O)c1cc3ccccc3[nH]1)CC2)C1(c2ccccc2)CC1 [Example 221, 5-(1H-indole-2-carbonyl)-N-methyl-N-(1-phenylcyclopropyl)-1H,4H,5H,6H,7H-pyrazolo[4,3-c]pyridine-3-carboxamide] | < 1 | > 10 |
| CN(C(=O)c1n[nH]c2c1CN(C(=O)c1cc3c(Cl)cc(F)cc3[nH]1)CC2)C1(CO)CC1 [Example 241, 5-(4-chloro-6-fluoro-1H-indole-2-carbonyl)-N-[1-(hydroxymethyl)cyclopropyl]-N-methyl-1H,4H,5H,6H,7H-pyrazolo[4,3-c]pyridine-3-carboxamide] | < 1 | > 10 |
| CO/N=C(\c1n[nH]c2c1CN(C(=O)c1cc3ccccc3[nH]1)CC2)C1CC1 [Example 289, (Z)-{cyclopropyl[5-(1H-indole-2-carbonyl)-1H,4H,5H,6H,7H-pyrazolo[4,3-c]pyridin-3-yl]methylidene}(methoxy)amine] | 1 to 25 | > 10 |
| CN(C(=O)c1[nH]nc2c1CN(C(=O)c1cc3cccc(F)c3[nH]1)CC2)C1CC1 [Example 319, N-cyclopropyl-5-(7-fluoro-1H-indole-2-carbonyl)-N-methyl-2H,4H,5H,6H,7H-pyrazolo[4,3-c]pyridine-3-carboxamide] | < 1 | > 10 |
| O=C(c1cc2c(Cl)cccc2[nH]1)N1CCc2n[nH]c(C3CCC3)c2C1 [Example 387, 4-chloro-2-{3-cyclobutyl-2H,4H,5H,6H,7H-pyrazolo[4,3-c]pyridine-5-carbonyl}-1H-indole] | < 1 | > 10 |
| O=C(c1cc2c(F)c(F)ccc2[nH]1)N1CCc2[nH]nc(C(=O)N3CCC(F)(F)C3)c2C1 [Example 231, 2-[3-(3,3-difluoropyrrolidine-1-carbonyl)-1H,4H,5H,6H,7H-pyrazolo[4,3-c]pyridine-5-carbonyl]-4,5-difluoro-1H-indole] | < 1 | > 10 |
| O=C(c1cc2cc(F)c(F)cc2[nH]1)N1CCc2n[nH]c(C3CCC3)c2C1 [Example 390, 2-{3-cyclobutyl-2H,4H,5H,6H,7H-pyrazolo[4,3-c]pyridine-5-carbonyl}-5,6-difluoro-1H-indole] | < 1 | > 10 |
| O=C(c1cc2ccccc2[nH]1)N1CCc2n[nH]c(C(=O)N3CCN(Cc4ccccc4)C4(CC4)C3)c2C1 [Example 257, 2-(3-{4-benzyl-4,7-diazaspiro[2.5]octane-7-carbonyl}-2H,4H,5H,6H,7H-pyrazolo[4,3-c]pyridine-5-carbonyl)-1H-indole] | 1 to 25 | > 10 |
| CN(C(=O)c1n[nH]c2c1CN(C(=O)c1cc3cc(F)c(Cl)cc3[nH]1)CC2)C1(CO)CC1 [Example 242, 5-(6-chloro-5-fluoro-1H-indole-2-carbonyl)-N-[1-(hydroxymethyl)cyclopropyl]-N-methyl-1H,4H,5H,6H,7H-pyrazolo[4,3-c]pyridine-3-carboxamide] | < 1 | > 10 |
| O=C(c1cc2c(F)cccc2[nH]1)N1CCc2n[nH]c(C3CCC3)c2C1 [Example 397, 2-{3-cyclobutyl-2H,4H,5H,6H,7H-pyrazolo[4,3-c]pyridine-5-carbonyl}-4-fluoro-1H-indole] | < 1 | > 10 |
| CCc1cc(F)cc2[nH]c(C(=O)N3CCc4[nH]nc(C(=O)N5CCC(F)(F)C5)c4C3)cc12 [Example 227, 2-[3-(3,3-difluoropyrrolidine-1-carbonyl)-1H,4H,5H,6H,7H-pyrazolo[4,3-c]pyridine-5-carbonyl]-4-ethyl-6-fluoro-1H-indole] | < 1 | > 10 |
| O=C(c1cc2ccccc2[nH]1)N1CCc2[nH]nc(C(=O)N3CC(F)(F)C3)c2C1 [Example 222, 2-[3-(3,3-difluoroazetidine-1-carbonyl)-1H,4H,5H,6H,7H-pyrazolo[4,3-c]pyridine-5-carbonyl]-1H-indole] | < 1 | > 10 |
| O=C(c1cc2ccccc2[nH]1)N1CCc2[nH]nc(C(=O)N3CC[C@H](F)C3)c2C1 [Example 224, 2-{3-[(3S)-3-fluoropyrrolidine-1-carbonyl]-1H,4H,5H,6H,7H-pyrazolo[4,3-c]pyridine-5-carbonyl}-1H-indole] | < 1 | > 10 |
| CC(F)(F)c1cc(F)cc2[nH]c(C(=O)N3CCc4n[nH]c(C5CCC5)c4C3)cc12 [Example 399, 2-{3-cyclobutyl-2H,4H,5H,6H,7H-pyrazolo[4,3-c]pyridine-5-carbonyl}-4-(1,1-difluoroethyl)-6-fluoro-1H-indole] | < 1 | > 10 |
| CN(C(=O)c1n[nH]c2c1CN(C(=O)c1cc3ccccc3[nH]1)CC2)C1(COC(=O)c2ccccc2)CC1 [Example 219, {1-[N-methyl 5-(1H-indole-2-carbonyl)-1H,4H,5H,6H,7H-pyrazolo[4,3-c]pyridine-3-amido]cyclopropyl}methyl benzoate] | < 1 | > 10 |
| CN(C(=O)c1[nH]nc2c1CN(C(=O)c1cc3cc(F)ccc3[nH]1)CC2)C1CC1 [Example 321, N-cyclopropyl-5-(5-fluoro-1H-indole-2-carbonyl)-N-methyl-2H,4H,5H,6H,7H-pyrazolo[4,3-c]pyridine-3-carboxamide] | < 1 | > 10 |
